{"source": "paper PMC5742115", "about": "“Pharmacophore Modeling and in Silico/in Vitro Screening for Human Cytochrome P450 11B1 and Cytochrome P450 11B2 Inhibitors” (Frontiers in Chemistry, 2017)", "origin": "cited, not measured here", "key": {"CYP11B2": {"system": "CYP11B2", "details": "reported activity, supplementary Table 1, read-out: CYP11B2 IC50, cited from earlier work"}, "CYP11B1": {"system": "CYP11B1", "details": "reported activity, supplementary Table 1, read-out: CYP11B1 IC50, cited from earlier work"}}, "note": "pIC50: −log10 of the molar value. Like-named read-outs stand apart in the source and are kept apart here."}
{"smiles": "C(=C1c2ccccc2-c2ccccc21)c1cccnc1", "note": "[CHEMBL194928]", "values": [{"measurement": "pIC50", "setting": "CYP11B2; ref Ulmschneider et al., 2005a", "value": 8.22}]}
{"smiles": "Fc1ccc2c(c1)CC/C2=C\\c1cncnc1", "note": "[CHEMBL195248]", "values": [{"measurement": "pIC50", "setting": "CYP11B1; ref Ulmschneider et al., 2005b", "value": 7.57}, {"measurement": "pIC50", "setting": "CYP11B2; ref Ulmschneider et al., 2005b", "value": 8.22}]}
{"smiles": "COc1ccc2c(c1)CC/C2=C/c1cncs1", "note": "[CHEMBL195354]", "values": [{"measurement": "pIC50", "setting": "CYP11B2; ref Ulmschneider et al., 2005a", "value": 8.30}]}
{"smiles": "Oc1ccc2cc(-c3cccnc3)ccc2c1", "note": "[CHEMBL195571]", "values": [{"measurement": "pIC50", "setting": "CYP11B2; ref Voets et al., 2005", "value": 7.64}]}
{"smiles": "Fc1ccc2c(c1)CC/C2=C\\c1cccc2ncccc12", "note": "[CHEMBL195580]", "values": [{"measurement": "pIC50", "setting": "CYP11B2; ref Ulmschneider et al., 2005a", "value": 7.85}]}
{"smiles": "Fc1ccc2c(c1)CC/C2=C/c1cccc2ncccc12", "note": "[CHEMBL195653]", "values": [{"measurement": "pIC50", "setting": "CYP11B2; ref Ulmschneider et al., 2005a", "value": 7.51}]}
{"smiles": "c1ccc2cc(-n3ccnc3)ccc2c1", "note": "[CHEMBL195996]", "values": [{"measurement": "pIC50", "setting": "CYP11B1; ref Voets et al., 2005", "value": 5.88}, {"measurement": "pIC50", "setting": "CYP11B2; ref Voets et al., 2005", "value": 7.41}]}
{"smiles": "COc1ccc2cc(-c3cccnc3)ccc2c1Br", "note": "[CHEMBL196328]", "values": [{"measurement": "pIC50", "setting": "CYP11B1; ref Voets et al., 2005", "value": 5.35}, {"measurement": "pIC50", "setting": "CYP11B2; ref Voets et al., 2005", "value": 7.48}]}
{"smiles": "N#Cc1ccc2cc(-c3cccnc3)ccc2c1", "note": "[CHEMBL196796]", "values": [{"measurement": "pIC50", "setting": "CYP11B1; ref Voets et al., 2005", "value": 6.16}, {"measurement": "pIC50", "setting": "CYP11B2; ref Voets et al., 2005", "value": 8.52}]}
{"smiles": "COc1ccc2cc(-c3cccnc3)ccc2c1Cl", "note": "[CHEMBL197576]", "values": [{"measurement": "pIC50", "setting": "CYP11B1; ref Voets et al., 2005", "value": 5.60}, {"measurement": "pIC50", "setting": "CYP11B2; ref Voets et al., 2005", "value": 7.89}]}
{"smiles": "c1cncc(-c2ccc3c4c(cccc24)CC3)c1", "note": "[CHEMBL199683]", "values": [{"measurement": "pIC50", "setting": "CYP11B2; ref Ulmschneider et al., 2006", "value": 7.85}]}
{"smiles": "c1ccc(-c2nc3ncc[nH]c-3n2)nc1", "note": "[CHEMBL201143]", "values": [{"measurement": "pIC50", "setting": "CYP11B1; ref Hille et al., 2011a", "value": 7.80}, {"measurement": "pIC50", "setting": "CYP11B2; ref Hille et al., 2011a", "value": 6.60}]}
{"smiles": "COc1ccc2c(c1)C=C(c1cccnc1)CC2", "note": "[CHEMBL206273]", "values": [{"measurement": "pIC50", "setting": "CYP11B2; ref Voets et al., 2006", "value": 8.30}]}
{"smiles": "O=c1cc(Cn2ccnc2)c2ccc(OCc3ccccc3)cc2o1", "note": "[CHEMBL225499]", "values": [{"measurement": "pIC50", "setting": "CYP11B1; ref Stefanachi et al., 2011", "value": 7.14}, {"measurement": "pIC50", "setting": "CYP11B2; ref Stefanachi et al., 2011", "value": 6.54}]}
{"smiles": "COc1ccc2c(c1)CC/C2=C\\c1ccncc1", "note": "[CHEMBL359942]", "values": [{"measurement": "pIC50", "setting": "CYP11B2; ref Ulmschneider et al., 2005a", "value": 7.23}]}
{"smiles": "C(=C1/CCCc2ccccc21)/c1ccncc1", "note": "[CHEMBL360026]", "values": [{"measurement": "pIC50", "setting": "CYP11B1; ref Ulmschneider et al., 2005a", "value": 6.84}, {"measurement": "pIC50", "setting": "CYP11B2; ref Ulmschneider et al., 2005a", "value": 7.82}]}
{"smiles": "COc1ccc2c(c1)CCC/C2=C\\c1cccnc1", "note": "[CHEMBL362441]", "values": [{"measurement": "pIC50", "setting": "CYP11B1; ref Ulmschneider et al., 2005a", "value": 6.04}, {"measurement": "pIC50", "setting": "CYP11B2; ref Ulmschneider et al., 2005a", "value": 7.24}]}
{"smiles": "C(=C1\\CCc2ccccc21)/c1cccnc1", "note": "[CHEMBL363621]", "values": [{"measurement": "pIC50", "setting": "CYP11B1; ref Ulmschneider et al., 2005b", "value": 7.06}, {"measurement": "pIC50", "setting": "CYP11B2; ref Ulmschneider et al., 2005b", "value": 7.04}]}
{"smiles": "Fc1ccc2c(c1)CC/C2=C/c1cccc2cnccc12", "note": "[CHEMBL363849]", "values": [{"measurement": "pIC50", "setting": "CYP11B1; ref Ulmschneider et al., 2005b", "value": 7.59}, {"measurement": "pIC50", "setting": "CYP11B2; ref Ulmschneider et al., 2005b", "value": 7.19}]}
{"smiles": "C(=C1/CCc2ccccc21)/c1cccnc1", "note": "[CHEMBL364080]", "values": [{"measurement": "pIC50", "setting": "CYP11B1; ref Ulmschneider et al., 2005a", "value": 6.05}, {"measurement": "pIC50", "setting": "CYP11B2; ref Ulmschneider et al., 2005a", "value": 7.96}]}
{"smiles": "COc1ccc2c(c1)/C(=C/c1ccncc1)CC2", "note": "[CHEMBL365314]", "values": [{"measurement": "pIC50", "setting": "CYP11B2; ref Ulmschneider et al., 2005a", "value": 8.52}]}
{"smiles": "Fc1cccc2c1CC/C2=C\\c1cccnc1", "note": "[CHEMBL366490]", "values": [{"measurement": "pIC50", "setting": "CYP11B1; ref Ulmschneider et al., 2005a", "value": 6.11}, {"measurement": "pIC50", "setting": "CYP11B2; ref Ulmschneider et al., 2005a", "value": 7.68}]}
{"smiles": "Brc1ccc2c(c1)CC/C2=C\\c1ccncc1", "note": "[CHEMBL366773]", "values": [{"measurement": "pIC50", "setting": "CYP11B1; ref Ulmschneider et al., 2005a", "value": 5.58}, {"measurement": "pIC50", "setting": "CYP11B2; ref Ulmschneider et al., 2005a", "value": 7.62}]}
{"smiles": "C(=C1\\CCCc2ccccc21)/c1c[nH]cn1", "note": "[CHEMBL367719]", "values": [{"measurement": "pIC50", "setting": "CYP11B1; ref Ulmschneider et al., 2005b", "value": 8.48}, {"measurement": "pIC50", "setting": "CYP11B2; ref Ulmschneider et al., 2005b", "value": 8.02}]}
{"smiles": "Clc1cccc2c1CC/C2=C/c1cccnc1", "note": "[CHEMBL369623]", "values": [{"measurement": "pIC50", "setting": "CYP11B1; ref Ulmschneider et al., 2005a", "value": 6.18}, {"measurement": "pIC50", "setting": "CYP11B2; ref Ulmschneider et al., 2005a", "value": 7.51}]}
{"smiles": "COc1ccc2c(c1)/C(=C\\c1ccncc1)CC2", "note": "[CHEMBL370281]", "values": [{"measurement": "pIC50", "setting": "CYP11B2; ref Ulmschneider et al., 2005a", "value": 7.59}]}
{"smiles": "C(=C(c1ccccc1)c1ccccc1)c1cccnc1", "note": "[CHEMBL370317]", "values": [{"measurement": "pIC50", "setting": "CYP11B2; ref Ulmschneider et al., 2005a", "value": 8.05}]}
{"smiles": "Fc1ccc2c(c1)CC/C2=C\\c1cccc2cnccc12", "note": "[CHEMBL370530]", "values": [{"measurement": "pIC50", "setting": "CYP11B1; ref Ulmschneider et al., 2005b", "value": 7.24}, {"measurement": "pIC50", "setting": "CYP11B2; ref Ulmschneider et al., 2005b", "value": 7.24}]}
{"smiles": "Fc1ccc2c(c1)CC/C2=C/c1ccnc2ccccc12", "note": "[CHEMBL371275]", "values": [{"measurement": "pIC50", "setting": "CYP11B2; ref Ulmschneider et al., 2005a", "value": 7.85}]}
{"smiles": "Fc1ccc2c(c1)CC/C2=C\\c1ccnc2ccccc12", "note": "[CHEMBL371509]", "values": [{"measurement": "pIC50", "setting": "CYP11B2; ref Ulmschneider et al., 2005a", "value": 7.70}]}
{"smiles": "Cc1ccc2c(c1)/C(=C/c1ccncc1)CC2", "note": "[CHEMBL371742]", "values": [{"measurement": "pIC50", "setting": "CYP11B2; ref Ulmschneider et al., 2005a", "value": 8.40}]}
{"smiles": "c1cncc(-c2ccc3cccc4c3c2CC4)c1", "note": "[CHEMBL372747]", "values": [{"measurement": "pIC50", "setting": "CYP11B2; ref Ulmschneider et al., 2006", "value": 8.00}]}
{"smiles": "CC1C/C(=C/c2cccnc2)c2ccccc21", "note": "(stereo not drawn) [CHEMBL373074]", "values": [{"measurement": "pIC50", "setting": "CYP11B2; ref Ulmschneider et al., 2005a", "value": 7.39}]}
{"smiles": "COc1ccc2c(Cl)c(-c3cccnc3)ccc2c1Cl", "note": "[CHEMBL381014]", "values": [{"measurement": "pIC50", "setting": "CYP11B1; ref Voets et al., 2005", "value": 5.31}, {"measurement": "pIC50", "setting": "CYP11B2; ref Voets et al., 2005", "value": 7.55}]}
{"smiles": "C(=C(c1ccccc1)c1ccccc1)c1ccncc1", "note": "[CHEMBL381194]", "values": [{"measurement": "pIC50", "setting": "CYP11B2; ref Ulmschneider et al., 2005a", "value": 7.66}]}
{"smiles": "C(=C1c2ccccc2-c2ccccc21)c1ccncc1", "note": "[CHEMBL383145]", "values": [{"measurement": "pIC50", "setting": "CYP11B2; ref Ulmschneider et al., 2005a", "value": 8.30}]}
{"smiles": "COc1ccc(Cn2cncc2CCCO)cc1", "note": "[CHEMBL597577]", "values": [{"measurement": "pIC50", "setting": "CYP11B2; ref Roumen et al., 2010", "value": 7.23}]}
{"smiles": "c1ccc2c(c1)ncn2CC12CC3CC(CC(C3)C1)C2", "note": "[CHEMBL1651506]", "values": [{"measurement": "pIC50", "setting": "CYP11B1; ref Hille et al., 2011b", "value": 7.12}]}
{"smiles": "CC(C)C(c1ccc(-c2ccccc2)nc1)n1ccnc1", "note": "(stereo not drawn) [CHEMBL2417622]", "values": [{"measurement": "pIC50", "setting": "CYP11B2; ref Emmerich et al., 2013", "value": 7.55}]}
